Assay results taken from PMC3267002 (Bioorganic & medicinal chemistry, 2011).
Where a name gives a salt, the structure may show the parent alone.

How the values were obtained:
[1] = target: T1, 5HT2C receptor (Homo sapiens, UniProt P28335); experiment: NIMH-PDSP radioligand binding, 5HT2C
T1 sequence (P28335 33-458): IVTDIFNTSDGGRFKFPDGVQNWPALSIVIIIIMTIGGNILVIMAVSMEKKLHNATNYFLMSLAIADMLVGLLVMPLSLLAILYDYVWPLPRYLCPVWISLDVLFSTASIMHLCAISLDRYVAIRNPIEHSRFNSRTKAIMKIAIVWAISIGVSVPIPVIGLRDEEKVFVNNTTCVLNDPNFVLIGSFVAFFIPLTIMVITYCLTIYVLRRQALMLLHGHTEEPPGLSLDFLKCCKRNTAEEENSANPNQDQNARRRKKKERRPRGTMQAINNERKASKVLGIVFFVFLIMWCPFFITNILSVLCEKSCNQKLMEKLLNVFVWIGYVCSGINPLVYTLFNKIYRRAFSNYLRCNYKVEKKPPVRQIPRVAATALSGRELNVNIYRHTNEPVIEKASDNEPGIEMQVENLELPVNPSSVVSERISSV

[2] = target: T2, 5HT1A receptor (Homo sapiens, UniProt P08908); experiment: NIMH-PDSP radioligand binding, 5HT1A; details: compound 15 as the template
T2 sequence (P08908 1-422): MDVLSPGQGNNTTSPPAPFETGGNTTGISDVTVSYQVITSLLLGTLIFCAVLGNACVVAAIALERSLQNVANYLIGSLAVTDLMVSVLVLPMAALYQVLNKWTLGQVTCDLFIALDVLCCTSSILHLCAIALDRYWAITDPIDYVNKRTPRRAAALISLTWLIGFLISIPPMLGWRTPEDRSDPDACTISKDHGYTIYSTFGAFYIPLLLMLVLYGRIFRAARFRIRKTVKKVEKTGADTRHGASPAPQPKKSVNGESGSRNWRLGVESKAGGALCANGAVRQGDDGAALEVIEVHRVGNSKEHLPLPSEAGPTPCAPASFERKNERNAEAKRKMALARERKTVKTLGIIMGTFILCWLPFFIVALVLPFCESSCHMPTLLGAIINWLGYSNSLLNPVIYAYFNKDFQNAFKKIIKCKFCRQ

[3] = target: T3, D4 receptor (Homo sapiens, UniProt P21917); experiment: NIMH-PDSP radioligand binding, D4; details: compared to the methylene analog (so in the source)
T3 sequence (P21917 1-419): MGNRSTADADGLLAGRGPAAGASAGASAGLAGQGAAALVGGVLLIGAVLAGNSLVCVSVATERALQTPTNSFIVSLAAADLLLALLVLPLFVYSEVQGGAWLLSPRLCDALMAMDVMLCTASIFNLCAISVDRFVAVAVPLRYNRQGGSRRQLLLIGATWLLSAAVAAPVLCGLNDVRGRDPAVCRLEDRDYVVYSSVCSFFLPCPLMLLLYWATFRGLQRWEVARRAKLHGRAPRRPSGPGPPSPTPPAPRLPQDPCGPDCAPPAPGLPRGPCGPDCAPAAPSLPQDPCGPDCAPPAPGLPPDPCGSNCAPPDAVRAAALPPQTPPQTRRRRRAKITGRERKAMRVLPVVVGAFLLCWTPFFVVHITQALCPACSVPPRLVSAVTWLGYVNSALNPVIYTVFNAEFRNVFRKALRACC

[4] = target: D2 receptor (Homo sapiens, UniProt P14416); experiment: NIMH-PDSP radioligand binding, D2; details: compound 15 as the template
Sequence of D2 receptor (P14416 whole entry): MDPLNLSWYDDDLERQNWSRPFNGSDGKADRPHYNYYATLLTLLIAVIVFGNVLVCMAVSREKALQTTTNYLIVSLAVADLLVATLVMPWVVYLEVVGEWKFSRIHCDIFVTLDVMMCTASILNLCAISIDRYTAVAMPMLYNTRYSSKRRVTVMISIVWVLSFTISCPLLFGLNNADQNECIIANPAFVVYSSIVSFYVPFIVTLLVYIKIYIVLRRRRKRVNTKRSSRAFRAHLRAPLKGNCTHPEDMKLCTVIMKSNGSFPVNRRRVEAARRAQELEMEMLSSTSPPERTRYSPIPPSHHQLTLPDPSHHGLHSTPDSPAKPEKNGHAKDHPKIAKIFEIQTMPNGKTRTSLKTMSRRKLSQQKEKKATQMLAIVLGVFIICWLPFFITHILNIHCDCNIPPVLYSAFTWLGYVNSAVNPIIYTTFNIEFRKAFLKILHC

| Compound | Ki [1] [µM] | other results |
| --- | --- | --- |
| Fc1ccc(OCCCN2CCC(c3ccc(Cl)cc3)CC2)cc1 [Compound 9, 4-(4-Chlorophenyl)-1-(3-(4-fluorophenoxy)propyl)piperidine] | > 10 |  |
| Clc1ccc(N2CCN(CCCOc3ccccc3)CC2)cc1 [Compound 17, 1-(4-Chlorophenyl)-4-(3-phenoxypropyl)piperazine HCl] |  | binding increased by a factor, 5HT1A receptor [2]: 3 |
| OC1(c2ccc(Cl)cc2)CCN(CCCOc2ccc(F)cc2)CC1 [Compound 7, 4-(4-Chloro-phenyl)-1-[3-(4-fluoro-phenoxy)-propyl]-piperidin-4-ol] |  | increase in binding at the D4 receptor [3]: over 4 fold |
| Fc1ccc(OCCCN2CCN(c3ccccc3)CC2)cc1 [Compound 16, 1-(3-(4-Fluorophenoxy)propyl)-4-phenylpiperazine] |  | increase in binding at the D2 receptor [4]: over 10 fold |
| Fc1ccc(SCCCN2CCC(c3ccc(Cl)cc3)CC2)cc1 [Compound 8, 4-(4-Chlorophenyl)-1-(3-((4-fluorophenyl)thio)propyl)piperidine hydrochloride] | > 10 |  |
| Fc1ccc(OCCCN2CCN(c3ncccn3)CC2)cc1 [Compound 22, 2-(4-(3-(4-Fluorophenoxy)propyl)piperazin-1-yl)pyrimidine] | > 10 |  |
| OC1(c2ccc(Cl)cc2)CCN(CCCSc2ccc(F)cc2)CC1 [Compound 6, 4-(4-chlorophenyl)-1-(3-((4-fluorophenyl)thio)propyl)piperidin-4-ol] |  | decrease in binding at the D4 receptor [3]: over 24 fold |
| [O-][S+](CCCN1CCC(c2ccc(Cl)cc2)CC1)c1ccc(F)cc1 (centres unmarked) [Compound 10, 4-(4-Chlorophenyl)-1-(3-((4-fluorophenyl)sulfinyl)propyl)piperidine HCl] | > 10 |  |
